# System: methicillin resistant Staphylococcus aureus (MRSA)
# Test: Agar well diffusion method, antibacterial activity on Mueller Hinton media
# Format: cell-based
# Conditions: for Inhibition zone diameter: bacterial lawn of Staphylococcus aureus grown on Mueller Hinton media, agar well diffusion
# Procedure: The antibacterial activities of safranal, a mixture of compound 2 and compound 3 obtained by the thermal epoxidation of safranal according to scheme 1, and a mixture of compound 2 and compound 3 obtained by the photochemical epoxidation of safranal according to scheme 2 against methicillin resistant Staphylococcus aureus (MRSA) were determined by the agar well diffusion method described by Collins, C. H., P. M. Lyne, J. M. Grange, Microbial Methods., 6th Edition, Butterworhs Co. Ltd, London; 1989. p. 410, incorporated herein by reference in its entirety.
# Table 1: Antibacterial Activity (Inhibition Zone Diameter) of the Mixture of Compound 2 and Compound 3 Obtained by the Thermal Epoxidation of Safranal or by the Photochemical Epoxidation of Safranal, and Safranal Against Staphylococcus aureus Grown on Mueller Hinton Media Using Agar Well Diffusion Method
smiles,measurement,setting,value
"CC1=C(C=O)C(C)(C)CC=C1 [Safranal, 2,6,6-trimethylcyclohexa-1,3-diene-1-carbaldehyde]",Inhibition zone in the bacterial lawn (presence/absence),"Staphylococcus aureus on Mueller Hinton media in a petri dish, agar well containing test substance, FIG. 3B-3D",presence of an inhibition zone
same,Inhibition zone diameter,,27.00 mm
same,Inhibition zone diameter,listed as safranal,27 mm
